These results are taken from ChEMBL document CHEMBL1148582, “Metal-mediated inhibition of Escherichia coli methionine aminopeptidase: structure-activity relationships and development of a novel scoring function for metal-ligand interactions” (J Med Chem, 2006).

Test [1] has as its target T1, Methionine aminopeptidase (Escherichia coli K-12, UniProt P0AE18).
T1 sequence (P0AE18 whole entry): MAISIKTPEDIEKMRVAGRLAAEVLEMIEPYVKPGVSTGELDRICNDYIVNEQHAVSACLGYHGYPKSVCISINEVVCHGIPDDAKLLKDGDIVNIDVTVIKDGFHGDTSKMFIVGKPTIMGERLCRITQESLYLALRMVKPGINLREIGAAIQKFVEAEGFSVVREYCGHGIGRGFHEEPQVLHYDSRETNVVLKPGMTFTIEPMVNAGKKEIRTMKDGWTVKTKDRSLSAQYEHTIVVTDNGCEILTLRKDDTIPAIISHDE
The test is described as follows: Inhibition of Co2+ loaded MetAP expressed in Escherichia coli.

Test [2] addresses T2, Methionine aminopeptidase (Escherichia coli K-12) (UniProt P0AE18).
T2 sequence (whole entry): T1 sequence (P0AE18 whole entry)
The test is described as follows: Inhibition of Mn2+ loaded MetAP expressed in Escherichia coli at upto 10 uM.

Test [3] deals with T2, Methionine aminopeptidase (Escherichia coli K-12). The test is described as follows: Inhibition of Co2+ loaded MetAP expressed in Escherichia coli at 10 uM.

Activity calls are given as the source filed them. No cut-off for these calls is given here. Some results are limits rather than exact numbers.

What is called IC50 is the midpoint of a concentration-inhibition curve. Lower therefore signals greater potency. The inhibition is how much of the control response was suppressed. Compound `Cc1cc2nc(-c3ccccn3)[nH]c2cc1C` gave an IC50 in test [1] of 2430 nM. Further, in test [2], the inhibition entry was “inactive”.

In the case of `COC(=O)Nc1nc2ccc(C(=O)c3ccccc3)cc2[nH]1` [MEBENDAZOLE], in test [1], the IC50 was greater than 10000 nM.

In test [1], `c1ccc(-c2nc3c[nH]cnc-3n2)nc1` gave an IC50 of 376 nM. For the same compound, in test [2], the inhibition entry was “inactive”.

`Nc1ccc2[nH]c(-c3ccccn3)nc2c1`: the inhibition entry in test [2] is “inactive”.

Take `CC(C)(C)c1ccc2nc(-c3cscn3)[nH]c2c1`: in test [1], the midpoint of inhibition, the IC50, lay at 3910 nM.

As to `Clc1ccc2nc(-c3ccccn3)[nH]c2c1`, in test [1], half-maximal inhibition (IC50) was put at 1690 nM. The inhibition entry in test [2] is “inactive”.

As to `CCCSc1ccc2nc(NC(=O)OC)[nH]c2c1` [ALBENDAZOLE], the IC50 in test [1] was greater than 10000 nM.

As to `O=C(c1ccccc1)c1ccc2[nH]c(-c3cscn3)nc2c1`, in test [2], the inhibition entry was “inactive”.

With `CC(C)(C)c1ccc2[nH]c(-c3cscn3)nc2c1`, the inhibition entry in test [2] was “inactive”.

Compound `c1ccc(-c2nc3cc[nH]cc-3n2)nc1` returned an IC50 in test [1] of 550 nM. Moreover, the inhibition entry in test [2] was “inactive”.

For the compound `Cc1ccc2nc(-c3ccccn3)[nH]c2c1`, the inhibition result in test [2] was “inactive”.

`NC(=S)Nc1nc2ccccc2[nH]1`: half-maximal inhibition in test [1] (IC50) was put at 8960 nM.

In test [1], `COC(=O)Nc1nc2ccccc2[nH]1` [CARBENDAZIM] came in with an IC50 greater than 10000 nM. Further, the inhibition entry in test [2] was “inactive”. For the same compound, the inhibition in test [3] was determined as 17.6%.

On to `O=[N+]([O-])c1ccc2[nH]c(-c3ccccn3)nc2c1`, for which it took 162 nM to reach half-maximal inhibition in test [1] (IC50). Moreover, the inhibition result in test [2] was “inactive”.

Take `c1ccc(Cn2c(-c3ccccn3)nc3ccccc32)cc1`: the IC50 in test [1] stood at 992 nM. Besides, the inhibition result in test [2] is “inactive”.

`c1ccc2[nH]c(-c3cscn3)nc2c1` [THIABENDAZOLE]: the IC50 in test [1] amounted to 472 nM. In test [2], the inhibition result is “inactive”.

As for `N/C(S)=N/c1nc2ccccc2[nH]1`, the inhibition result in test [2] was “inactive”.

With `c1ccc(-c2nc3ccccc3[nH]2)nc1`, in test [1], the IC50 is 574 nM. In test [2], the inhibition result was “inactive”.

As for `CCCSc1ccc2[nH]c(NC(=O)OC)nc2c1`, the inhibition result in test [2] is “inactive”. The compound also displayed an inhibition in test [3] of 15.4%.

As for `Cn1c(-c2cscn2)nc2ccccc21`, the inhibition entry in test [2] was “inactive”.

As to `Nc1ccc2[nH]c(-c3cscn3)nc2c1`, inhibition in test [1] was half-maximal at 3390 nM (IC50). Also, the inhibition entry in test [2] was “inactive”.

In test [1], `O=C(c1ccccc1)c1ccc2nc(-c3ccccn3)[nH]c2c1` came in with an IC50 of 403 nM.

Turning to `c1c[nH]c2nc(-c3cscn3)nc-2c1`, the IC50 in test [1] is 78 nM. In addition, in test [2], the inhibition result was “inactive”.

`c1ccc(-c2nc3ncc[nH]c-3n2)nc1`: the IC50 in test [1] worked out at 240 nM. In addition, in test [2], the inhibition result was “inactive”.

`Fc1ccc2[nH]c(-c3ccccn3)nc2c1` showed an IC50 in test [1] of 1510 nM.

Turning to `Cc1ccc2[nH]c(-c3ccccn3)nc2c1`, in test [1], the IC50 is 2090 nM.

In the case of `Fc1ccc2nc(-c3ccccn3)[nH]c2c1`, the inhibition entry in test [2] is “inactive”.

`Nc1ccc2nc(-c3ccccn3)[nH]c2c1` displayed an IC50 in test [1] of 967 nM.

`O=[N+]([O-])c1ccc2[nH]c(-c3cscn3)nc2c1`: the inhibition result in test [2] is “inactive”.

As to `Cc1ccc2[nH]c(-c3cscn3)nc2c1`, in test [2], the inhibition result was “inactive”.

In test [1], `c1csc(-c2nc3ccccc3[nH]2)c1` came in with an IC50 greater than 10000 nM. In addition, in test [2], the inhibition entry was “inactive”. Further, the inhibition in test [3] was found to be 5.36%.

The compound `c1ccc(-c2nc3ccc[nH]c-3n2)nc1` gave an IC50 in test [1] of 105 nM. The inhibition result in test [2] is “inactive”.

Compound `CC(C)(C)c1ccc2nc(-c3ccccn3)[nH]c2c1` came in with a half-inhibitory concentration (IC50) in test [1] of 2600 nM.

Consider `c1cncc(-c2nc3ccccc3[nH]2)c1`, for which, in test [1], the IC50 was greater than 10000 nM. For the same compound, the inhibition result in test [2] is “inactive”. In addition, the inhibition in test [3] turned out to be 4.21%.

For `CC(C)(C)c1ccc2[nH]c(-c3ccccn3)nc2c1`, the inhibition entry in test [2] was “inactive”.

The compound `c1cc2nc(-c3cscn3)[nH]c2cn1` had an IC50 in test [1] of 1720 nM.

As for `N#Cc1ccc2[nH]c(-c3ccccn3)nc2c1`, the IC50 in test [1] came to 431 nM. Further, the inhibition entry in test [2] is “inactive”.

Regarding `O=C(c1ccccc1)c1ccc2[nH]c(-c3ccccn3)nc2c1`, the inhibition entry in test [2] is “inactive”.

In turn, `Oc1ccccc1-c1nc2ccccc2[nH]1` yielded an IC50 in test [1] greater than 10000 nM. Besides, the inhibition entry in test [2] was “inactive”. The inhibition in test [3] is 30.4%.

As to `c1cc2[nH]c(-c3cscn3)nc2cn1`, the inhibition result in test [2] is “inactive”.

Take `O=c1cccc(-c2nc3ccccc3[nH]2)[nH]1`: the IC50 in test [1] was 1340 nM.

In turn, `Oc1cccnc1-c1nc2ccccc2[nH]1` returned an IC50 in test [1] of 777 nM. Further, in test [2], the inhibition entry is “inactive”.

Take `COC(=O)Nc1nc2cc(C(=O)c3ccccc3)ccc2[nH]1`: the inhibition result in test [2] was “inactive”. The compound further registered an inhibition in test [3] of 29%.

In test [1], `c1ccc2[nH]c(-c3cnccn3)nc2c1` registered an IC50 of 4590 nM. For the same compound, the inhibition entry in test [2] is “inactive”.

In test [1], `c1ccc2[nH]c(Nc3nccs3)nc2c1` registered an IC50 of 540 nM. The inhibition result in test [2] is “inactive”.

`COC(=O)Nc1nc2cc(Sc3ccccc3)ccc2[nH]1`: in test [2], the inhibition entry is “inactive”. Moreover, in test [3], the inhibition was found to be 6.07%.

The compound `COC(=O)Nc1nc2ccc(Sc3ccccc3)cc2[nH]1` [FENBENDAZOLE] gave an IC50 in test [1] greater than 10000 nM.

Turning to `Clc1ccc2[nH]c(-c3cscn3)nc2c1`, the IC50 in test [1] amounted to 5150 nM. In addition, the inhibition entry in test [2] was “inactive”.

On to `Cc1cc2nc(-c3cscn3)[nH]c2cc1C`, for which, in test [1], the IC50 is greater than 10000 nM. In test [2], the inhibition result was “inactive”. In addition, the inhibition in test [3] came out at 47.8%.

As for `Fc1ccc2[nH]c(-c3cscn3)nc2c1`, in test [2], the inhibition result is “inactive”.

`c1coc(-c2nc3ccccc3[nH]2)c1` [FUBERIDAZOLE] yielded an IC50 in test [1] greater than 10000 nM. In test [2], the inhibition entry is “inactive”. The compound also yielded an inhibition in test [3] of 10.4%.

As to `Oc1cccc(-c2nc3ccccc3[nH]2)n1`, the inhibition result in test [2] was “inactive”.

For `c1ccc(Cn2c(-c3cscn3)nc3ccccc32)cc1`, the inhibition result in test [2] is “inactive”.
